# Where two headings read alike, the source gives them in different places.
# Legend:
# [1] = test system: Colo205 cells; experiment: Analysis of cell proliferation and viability; format: cell-based; settings: Homo sapiens, read-out: IC50 value
# Protocol: Colo205 cells were seeded in 96 well plates and serially diluted compound was added to the wells in duplicate. Control groups included untreated cells, the compound diluent (0.1% DMSO alone) and culture medium without cells.
# To measure proliferation, 3 h prior to the end of the experiment 0.5 μCi of 3H thymidine was added to each well. Cells were then harvested and the incorporated radioactivity counted on a Wallac microplate beta-counter. Cell viability was assessed using Promega CellTiter 96AQ to measure MTS conversion. Dose response curves were calculated using either Prism 3.0 (GraphPad) or SoftMax Pro 4.3.1 LS (Molecular Devices) software.
# [2] = biological target: T1, Aurora-2 (Aurora A) (Homo sapiens, UniProt O14965); experiment: Aurora-2 (Aurora A) inhibition assay, coupled enzyme; format: biochemical
# T1 sequence (O14965 1-403): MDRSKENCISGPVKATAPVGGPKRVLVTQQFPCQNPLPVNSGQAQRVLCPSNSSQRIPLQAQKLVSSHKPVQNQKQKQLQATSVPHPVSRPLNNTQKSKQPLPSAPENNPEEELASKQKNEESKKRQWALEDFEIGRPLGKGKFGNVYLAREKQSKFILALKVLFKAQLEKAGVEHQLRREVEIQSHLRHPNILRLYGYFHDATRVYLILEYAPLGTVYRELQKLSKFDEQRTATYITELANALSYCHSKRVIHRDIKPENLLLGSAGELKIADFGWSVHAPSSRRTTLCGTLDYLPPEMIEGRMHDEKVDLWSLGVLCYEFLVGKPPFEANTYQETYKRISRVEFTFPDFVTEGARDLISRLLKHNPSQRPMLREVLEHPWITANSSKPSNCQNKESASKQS
# Protocol: Assays were carried out in a mixture of 100 mM Hepes (pH7.5), 10 mM MgCl2, 1 mM DTT, 25 mM NaCl, 2.5 mM phosphoenolpyruvate, 300 μM NADH, 30 μg/ml pyruvate kinase and 10 μg/ml lactate dehydrogenase. […] Assays were carried out at 30° C. and in the presence of 40 nM Aurora-2.
# The plate was preincubated for 10 minutes at 30° C. and the reaction initiated by addition of 10 μl of Aurora-2. Initial reaction rates were determined with a Molecular Devices SpectraMax Plus plate reader over a 10 minute time course. IC50 and Ki data were calculated from non-linear regression analysis using the Prism software package (GraphPad Prism version 3.0cx for Macintosh, GraphPad Software, San Diego Calif., USA).
# [3] = biological target: T2, JAK3 (Homo sapiens, UniProt P52333); experiment: biochemical
# T2 sequence (P52333 1-1124): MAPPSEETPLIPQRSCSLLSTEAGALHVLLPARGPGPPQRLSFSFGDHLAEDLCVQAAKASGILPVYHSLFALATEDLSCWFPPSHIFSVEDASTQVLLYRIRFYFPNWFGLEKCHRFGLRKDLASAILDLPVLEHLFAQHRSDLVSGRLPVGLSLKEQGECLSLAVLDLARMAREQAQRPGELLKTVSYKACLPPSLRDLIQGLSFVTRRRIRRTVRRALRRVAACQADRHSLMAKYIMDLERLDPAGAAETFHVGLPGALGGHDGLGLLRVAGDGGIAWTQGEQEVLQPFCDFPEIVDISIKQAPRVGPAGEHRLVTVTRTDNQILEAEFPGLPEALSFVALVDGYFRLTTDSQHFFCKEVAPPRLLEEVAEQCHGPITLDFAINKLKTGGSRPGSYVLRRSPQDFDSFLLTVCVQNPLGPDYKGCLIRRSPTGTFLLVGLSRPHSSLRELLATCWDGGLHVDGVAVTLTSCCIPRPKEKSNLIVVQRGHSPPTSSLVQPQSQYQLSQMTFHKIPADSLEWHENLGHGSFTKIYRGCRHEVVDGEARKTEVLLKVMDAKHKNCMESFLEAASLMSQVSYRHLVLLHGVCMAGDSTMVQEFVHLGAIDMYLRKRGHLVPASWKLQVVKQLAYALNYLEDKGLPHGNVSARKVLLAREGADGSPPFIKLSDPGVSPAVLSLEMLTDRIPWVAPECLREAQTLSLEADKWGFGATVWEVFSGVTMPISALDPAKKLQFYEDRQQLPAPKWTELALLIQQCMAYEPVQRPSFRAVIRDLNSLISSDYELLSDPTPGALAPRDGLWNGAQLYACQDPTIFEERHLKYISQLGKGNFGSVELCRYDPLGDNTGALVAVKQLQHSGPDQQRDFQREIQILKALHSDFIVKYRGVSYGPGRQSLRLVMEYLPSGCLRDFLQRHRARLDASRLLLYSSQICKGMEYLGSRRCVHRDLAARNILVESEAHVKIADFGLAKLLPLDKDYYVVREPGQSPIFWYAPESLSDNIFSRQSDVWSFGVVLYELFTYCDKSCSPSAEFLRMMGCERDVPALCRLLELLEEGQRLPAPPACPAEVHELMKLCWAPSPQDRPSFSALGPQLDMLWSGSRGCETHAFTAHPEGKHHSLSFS
# [4] = biological target: Aurora-1 (Aurora B) (Homo sapiens, UniProt Q96GD4); experiment: Aurora-1 (Aurora B) inhibition assay (radiometric); format: biochemical; settings: read-out: Aurora B kinase Ki value
# Sequence of Aurora-1 (Aurora B) (Q96GD4 whole entry): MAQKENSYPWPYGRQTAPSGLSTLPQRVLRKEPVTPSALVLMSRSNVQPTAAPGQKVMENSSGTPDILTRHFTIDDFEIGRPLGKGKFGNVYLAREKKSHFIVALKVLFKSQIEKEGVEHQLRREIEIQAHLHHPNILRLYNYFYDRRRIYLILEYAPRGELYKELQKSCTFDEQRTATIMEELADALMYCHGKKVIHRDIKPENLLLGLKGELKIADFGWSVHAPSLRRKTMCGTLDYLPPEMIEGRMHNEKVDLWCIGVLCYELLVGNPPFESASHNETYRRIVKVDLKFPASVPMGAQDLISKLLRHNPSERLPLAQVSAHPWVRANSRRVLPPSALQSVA
# Protocol: An assay buffer solution was prepared which consisted of 25 mM HEPES (pH 7.5), 10 mM MgCl2, 0.1% BSA and 10% glycerol. […] To 22 μL of the Aurora-B solution, in a 96-well plate, was added 2 μl of a compound stock solution in DMSO and the mixture allowed to equilibrate for 10 minutes at 25° C. The enzyme reaction was initiated by the addition of 16 μl stock [γ-^33P]-ATP solution (˜20 nCi/μL) prepared in assay buffer, to a final assay concentration of 800 μM. The reaction was stopped after 3 hours by the addition of 16 μL 500 mM phosphoric acid and the levels of ^33P incorporation into the peptide substrate were determined by the following method.
# A phosphocellulose 96-well plate (Millipore, Cat no. MAPHNOB50) was pre-treated with 100 μL of a 100 mM phosphoric acid prior to the addition of the enzyme reaction mixture (40 μL). The solution was left to soak on to the phosphocellulose membrane for 30 minutes and the plate subsequently washed four times with 200 μL of a 100 mM phosphoric acid. […] Levels of non-enzyme catalyzed background radioactivity were determined by adding 16 μL of the 500 mM phosphoric acid to control wells, containing all assay components (which acts to denature the enzyme), prior to the addition of the [γ-^33P]-ATP solution. Levels of enzyme catalyzed. ^33P incorporation were calculated by subtracting mean background counts from those measured at each inhibitor concentration. […] Ki values were calculated from initial rate data by non-linear regression using the Prism software package (Prism 3.0, Graphpad Software, San Diego, Calif.).
# [5] = biological target: T3, FLT-3 (Homo sapiens, UniProt P36888); experiment: FLT-3 inhibition assay, radiometric filter-binding; format: biochemical; settings: read-out: FLT-3 Ki value
# T3 sequence (P36888 27-993): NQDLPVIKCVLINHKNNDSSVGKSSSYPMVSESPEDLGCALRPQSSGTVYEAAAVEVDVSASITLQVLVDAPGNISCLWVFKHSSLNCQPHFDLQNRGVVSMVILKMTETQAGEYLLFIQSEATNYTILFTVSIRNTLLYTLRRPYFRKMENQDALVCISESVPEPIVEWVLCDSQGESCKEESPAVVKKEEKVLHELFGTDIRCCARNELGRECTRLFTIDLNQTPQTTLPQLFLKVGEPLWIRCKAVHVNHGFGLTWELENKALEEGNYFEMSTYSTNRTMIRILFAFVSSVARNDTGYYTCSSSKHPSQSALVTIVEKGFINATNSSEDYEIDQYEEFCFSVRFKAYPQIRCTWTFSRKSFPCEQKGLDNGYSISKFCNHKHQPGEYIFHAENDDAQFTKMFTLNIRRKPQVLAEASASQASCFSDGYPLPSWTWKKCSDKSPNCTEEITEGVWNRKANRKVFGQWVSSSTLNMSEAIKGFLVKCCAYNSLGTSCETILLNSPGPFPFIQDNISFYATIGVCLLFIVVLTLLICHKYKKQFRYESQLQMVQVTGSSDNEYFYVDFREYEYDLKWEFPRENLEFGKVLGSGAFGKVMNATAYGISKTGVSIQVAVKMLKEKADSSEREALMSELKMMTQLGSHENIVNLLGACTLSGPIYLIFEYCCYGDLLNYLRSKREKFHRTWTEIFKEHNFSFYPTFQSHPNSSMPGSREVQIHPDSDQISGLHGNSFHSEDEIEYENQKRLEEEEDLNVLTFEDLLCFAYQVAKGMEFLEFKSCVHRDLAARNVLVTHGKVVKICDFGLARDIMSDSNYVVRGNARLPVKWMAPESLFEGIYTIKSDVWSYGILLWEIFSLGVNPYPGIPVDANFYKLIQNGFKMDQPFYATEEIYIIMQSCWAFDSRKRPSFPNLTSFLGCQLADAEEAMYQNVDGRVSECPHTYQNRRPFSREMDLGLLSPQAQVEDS
# Protocol: This assay monitors the 33P incorporation into a substrate poly(Glu, Tyr) 4:1 (pE4Y). […] Final substrate concentrations in the assay were 90 μM ATP and 0.5 mg/ml pE4Y (both from Sigma Chemicals, St. Louis, Mo.). […] Reactions were carried out at room temperature.
# Two assay solutions were prepared. Solution 1 contains 100 mM HEPES (pH 7.5), 10 mM MgCl2, 25 mM NaCl, 1 mg/ml pE4Y and […] (containing 0.3 mCi of [γ-33^P]ATP for each reaction). Solution 2 contains 100 mM HEPES (pH 7.5), 10 mM MgCl2, 25 mM NaCl, 2 mM DTT, 0.02% BSA and 3 nM FLT-3. The assay was run on a 96 well plate by mixing 50 μl each of Solution 1 and […] of the compounds of the present invention. The reaction was initiated with Solution 2. […] All of the reaction volume was then transferred to a filter plate and washed with 5% TCA by a Harvester 9600 from TOMTEC (Hamden, Conn.). The amount of ^33P incorporation into pE4y was analyzed by a Packard Top Count Microplate Scintillation Counter (Meriden, Conn.). The data was fitted using Prism software to get an IC50 or Ki.
# [6] = COLO 205, Colo205 cells, incubated for 72 hours
# [7] = read-out: Aurora A kinase Ki value
# [8] = COLO 205, Colo205 cells, incubated for 96 hours
SMILES,"IC50 [1, 6] [nM]","Ki [2, 7] [nM]",Ki [3] [nM],Ki [4] [nM],"IC50 [1, 8] [nM]",also measured
Cc1cc(Nc2cc(N3CCC3)nc(Sc3ccc(NC(=O)c4ccc(Oc5ccccc5)cc4Cl)cc3)n2)[nH]n1 [Compound 87],30 to 200,≤ 1,500 to 2000,≤ 10,,
Cc1cc(Nc2cc(N3CC(O)(C4CC4)C3)nc(Oc3ccc4nc(C)sc4c3)n2)[nH]n1 [Compound 180],30 to 200,≤ 1,≤ 10,10 to 50,,
Cc1cc(Nc2cc(N3CC(F)(C4CC4)C3)nc(Sc3ccc(NC(=O)[C@H]4CCCN4C(C)C)cc3)n2)[nH]n1 [Compound 193],> 200,1 to 5,,50 to 2000,,Ki [5]: 150 to 1000 nM
Cc1cc(Nc2nc(Sc3ccc(NC(=O)c4ccccc4Cl)cc3)nc(N3CCC3)c2F)[nH]n1 [Compound 192],> 200,1 to 5,500 to 2000,10 to 50,,
Cc1cc(Nc2cc(N3CCC3)nc(Sc3ccc(NC(=O)c4cccc(CN(C)C)c4)cc3)n2)[nH]n1 [Compound 138],,,500 to 2000,50 to 2000,50 to 1000,
Cc1cc(Nc2cc(N3CC(F)(C4CC4)C3)nc(Sc3ccc4c(c3)CN(CC(F)(F)F)C4=O)n2)[nH]n1 [Compound 179],30 to 200,≤ 1,,≤ 10,,Ki ([3]; read-out: JAK3 Ki value): 10 to 500 nM
Cc1cc(Nc2cc(N3CCC3)nc(Sc3ccc(NC(=O)c4ccc(CN5CCC5)cc4)cc3)n2)[nH]n1 [Compound 139],,5 to 200,,50 to 2000,50 to 1000,Ki [5]: 150 to 1000 nM
Cc1cc(Nc2cc(N3CCC3)nc(Sc3ccc(C(=O)Nc4ccc(Cl)cc4)cc3)n2)n[nH]1 [Compound 21],,,≤ 10,50 to 2000,> 1000,Ki [2]: 5 to 200 nM
CCC(=O)Nc1ccc(Sc2nc(Nc3cc(C)n[nH]3)cc(N3CC(O)(C4CCCC4)C3)n2)cc1 [Compound 97],,,10 to 500,,,"IC50 ([1]; COLO 205, 72 h): ≤ 30 nM; IC50 ([1]; COLO 205, 96 h): > 1000 nM"
Cc1cc(Nc2cc(N3CC(O)(C4CC4)C3)nc(Sc3ccc(NC(=O)C4CC4)cc3F)n2)[nH]n1 [Compound 110],,,≤ 10,,≤ 50,
Cc1cc(Nc2cc(N3CC(F)(C4CC4)C3)nc(Sc3ccc(NC(=O)CC(F)(F)F)nc3)n2)[nH]n1 [Compound 211],,,≤ 10,,,"IC50 ([1]; COLO 205, 72 h): ≤ 30 nM"
Cc1cc(Nc2cc(N3CC(O)(C4CC4)C3)nc(Sc3ccc(NC(=O)C4CC4(F)F)cc3)n2)[nH]n1 (stereo not shown) [Compound 113],≤ 30,,≤ 10,,,
